Experimental data from PubChem BioAssay AID330 (DTP/NCI, 2004).
Several values for one entry are separate records, joined by “and”; a condition that tells them apart may be missing. Identical values can stand only once. Toxic doses and inconclusive results are not listed.

System: P388 leukemia ip, CD2F1 mice, survival T/C
Assay: NCI In Vivo Anticancer Drug Screen. Data for tumor model P388 Leukemia (intraperitoneal) in CD2F1 (CDF1) mice
Conditions: endpoint: median survival time, higher = longer survival
Method: The antitumor activity of compounds was measured in mice bearing transplantable tumors. Survival or tumor size were measured and the results are expressed as the measurement made in the treated group (T) divided by the measurement made in the vehicle treated control group (C). The tumor model used in this assay is P388 Leukemia (intraperitoneal) in CD2F1 (CDF1) mice

[1] = dose: 50.0 mg/kg/injection, schedule: Q01DX009 (ip), vehicle: saline with Tween-80
[2] = dose: 100.0 mg/kg/injection, schedule: Q01DX009 (ip), vehicle: saline with Tween-80
[3] = dose: 200.0 mg/kg/injection, schedule: Q01DX009 (ip), vehicle: saline with Tween-80
[4] = dose: 60.0 mg/kg/injection, schedule: Q01DX005 (ip), vehicle: saline with Tween-80
[5] = dose: 120.0 mg/kg/injection, schedule: Q01DX005 (ip), vehicle: saline with Tween-80
[6] = dose: 240.0 mg/kg/injection, schedule: Q01DX005 (ip), vehicle: saline with Tween-80
[7] = dose: 12.5 mg/kg/injection, schedule: Q01DX005 (ip), vehicle: Klucel (hydroxypropylcellulose) (HPC)
[8] = dose: 25.0 mg/kg/injection, schedule: Q01DX005 (ip), vehicle: Klucel (hydroxypropylcellulose) (HPC)

COc1cc2c(cc1OC)C(=O)Nc1nc(N)nc(N)c1C2
T/C (dose: 100.0 mg/kg/injection, schedule: Q01DX001 (ip), vehicle: saline with Tween-80): 108 % of control
T/C (dose: 200.0 mg/kg/injection, schedule: Q01DX001 (ip), vehicle: saline with Tween-80): 119 % of control

O=C(Nc1ccc(C2=NCCN2)cc1)c1cc2ccc(C3=NCCN3)cc2o1
T/C (dose: 100.0 mg/kg/injection, schedule: Q04DX003 (ip), vehicle: suspension in saline): 104 % of control
T/C (dose: 200.0 mg/kg/injection, schedule: Q04DX003 (ip), vehicle: suspension in saline): 119 % of control

Cc1cc[c]([Sb]2([c]3ccc(C)cc3)([c]3ccc(C)cc3)[NH]c3cc(C(c4ccccc4)(c4ccccc4)c4ccccc4)cc(C(C)(C)C)c3[O]2)cc1
T/C [1]: 94 % of control
T/C [2]: 92 % of control
T/C [3]: 99 % of control

CCOC(=O)N1Cc2cc3ccccc3nc2C1CC(=O)O (stereo not given)
T/C (dose: 200.0 mg/kg/injection, schedule: Q01DX009 (ip), vehicle: Klucel (hydroxypropylcellulose) (HPC)): 95 % of control
T/C (dose: 400.0 mg/kg/injection, schedule: Q01DX009 (ip), vehicle: Klucel (hydroxypropylcellulose) (HPC)): 104 % of control

CCOC1(C(C)O)CC(c2ccccc2)=NO1 (stereo not given)
T/C [4]: 108 % of control
T/C [5]: 101 % of control
T/C [6]: 100 % of control

CC1(C(=O)O)CCCC2(C)C3=C(CCCC3)CCC12 (stereo not given)
T/C [2]: 104 % of control
T/C [3]: 100 % of control
T/C (dose: 400.0 mg/kg/injection, schedule: Q01DX009 (ip), vehicle: saline with Tween-80): 95 % of control

O=C(Nc1nncs1)C(F)(F)F
T/C (dose: 12.5 mg/kg/injection, schedule: Q01DX009 (ip), vehicle: distilled water + Tween-80): 111 % of control
T/C (dose: 12.5 mg/kg/injection, schedule: Q01DX009 (ip), vehicle: water): 109 % of control
T/C (dose: 25.0 mg/kg/injection, schedule: Q01DX009 (ip), vehicle: distilled water + Tween-80): 118 % of control
T/C (dose: 50.0 mg/kg/injection, schedule: Q01DX009 (ip), vehicle: distilled water + Tween-80): 163 % of control
T/C (dose: 50.0 mg/kg/injection, schedule: Q01DX009 (ip), vehicle: water): 159 % of control

CN[C@H]1CCc2cc(OC)c(OC)c(OC)c2-c2ccc(O)c(=O)cc21
T/C (dose: 2.5 mg/kg/injection, schedule: Q01DX009 (ip), vehicle: Klucel (hydroxypropylcellulose) (HPC)): 103 % of control
T/C (dose: 5.0 mg/kg/injection, schedule: Q01DX009 (ip), vehicle: Klucel (hydroxypropylcellulose) (HPC)): 100 % of control
T/C (dose: 10.0 mg/kg/injection, schedule: Q01DX009 (ip), vehicle: Klucel (hydroxypropylcellulose) (HPC)): 99 % of control
T/C (dose: 20.0 mg/kg/injection, schedule: Q01DX009 (ip), vehicle: Klucel (hydroxypropylcellulose) (HPC)): 93 % of control
T/C (dose: 40.0 mg/kg/injection, schedule: Q01DX009 (ip), vehicle: Klucel (hydroxypropylcellulose) (HPC)): 92 % of control
T/C (dose: 80.0 mg/kg/injection, schedule: Q01DX009 (ip), vehicle: Klucel (hydroxypropylcellulose) (HPC)): 108 % of control

Cc1ccc2c(c1)[C@]1(C)O[C@@H](C=C[C@@H]1O)O2
T/C (dose: 100.0 mg/kg/injection, schedule: Q01DX001 (ip), vehicle: Klucel (hydroxypropylcellulose) (HPC)): 104 % of control
T/C (dose: 200.0 mg/kg/injection, schedule: Q01DX001 (ip), vehicle: Klucel (hydroxypropylcellulose) (HPC)): 102 % of control

CC1(C)C2=CCCC3(OCCO3)C2(C)CCC1O (stereo not given)
T/C (dose: 100.0 mg/kg/injection, schedule: Q04DX003 (ip), vehicle: saline with Tween-80): 90 % of control
T/C (dose: 200.0 mg/kg/injection, schedule: Q04DX003 (ip), vehicle: saline with Tween-80): 90 % of control
T/C (dose: 400.0 mg/kg/injection, schedule: Q04DX003 (ip), vehicle: saline with Tween-80): 90 % of control

O=C(O)C1CCCCC1c1c2ccc(=O)c(O)c-2oc2c(O)c(O)ccc12 (stereo not given)
T/C (dose: 15.0 mg/kg/injection, schedule: Q01DX005 (ip), vehicle: saline with Tween-80): 102 % of control
T/C (dose: 30.0 mg/kg/injection, schedule: Q01DX005 (ip), vehicle: saline with Tween-80): 102 % of control and 105 % of control
T/C [4]: 110 % of control and 111 % of control and 119 % of control
T/C [5]: 107 % of control and 111 % of control and 112 % of control
T/C [6]: 121 % of control

N#Cc1c(-c2cccn(-c3ccccc3)c2=O)cc(-c2ccccc2)[nH]c1=O
T/C (dose: 50.0 mg/kg/injection, schedule: Q01DX005 (ip), vehicle: Klucel (hydroxypropylcellulose) (HPC)): 88 % of control
T/C (dose: 100.0 mg/kg/injection, schedule: Q01DX005 (ip), vehicle: Klucel (hydroxypropylcellulose) (HPC)): 89 % of control
T/C (dose: 200.0 mg/kg/injection, schedule: Q01DX005 (ip), vehicle: Klucel (hydroxypropylcellulose) (HPC)): 110 % of control

Nc1ncnc2c1cnn2CCCl
T/C (dose: 6.25 mg/kg/injection, schedule: Q01DX009 (ip), vehicle: saline): 95 % of control
T/C (dose: 12.5 mg/kg/injection, schedule: Q01DX009 (ip), vehicle: saline): 100 % of control
T/C (dose: 25.0 mg/kg/injection, schedule: Q01DX009 (ip), vehicle: saline): 100 % of control

CN1C(=O)N(C)C(=O)C(Cl)(Cl)C1=O
T/C [7]: 101 % of control
T/C [8]: 97 % of control

CC[C@@H]1CN2CCc3c([nH]c4ccccc34)[C@@](C(=O)OC)(c3cc4c(cc3OC)N(C)[C@H]3[C@@](O)(C(=O)OC)[C@H](OC(C)=O)[C@]5(CC)C=CCN6CC[C@]43[C@@H]65)C[C@H](C2)[C@H]1O
T/C (dose: 1.0 mg/kg/injection, schedule: Q01DX001 (ip), vehicle: water): 115 % of control
T/C (dose: 2.0 mg/kg/injection, schedule: Q01DX001 (ip), vehicle: water): 115 % of control
T/C (dose: 4.0 mg/kg/injection, schedule: Q01DX001 (ip), vehicle: water): 117 % of control and 118 % of control
T/C (dose: 32.0 mg/kg/injection, schedule: Q01DX001 (ip), vehicle: water): 174 % of control
T/C (dose: 64.0 mg/kg/injection, schedule: Q01DX001 (ip), vehicle: water): 150 % of control and 174 % of control

Clc1ncnc2c1ncn2C1CCCO1 (stereo not given)
T/C (dose: 50.0 mg/kg/injection, schedule: Q01DX009 (ip), vehicle: saline): 110 % of control
T/C (dose: 100.0 mg/kg/injection, schedule: Q01DX009 (ip), vehicle: saline): 115 % of control

NC(CO)C(O)c1ccc(N=Nc2ccc(O)cc2)cc1 (stereo not given)
T/C (dose: 25.0 mg/kg/injection, schedule: Q01DX009 (ip), vehicle: saline with Tween-80): 95 % of control
T/C [1]: 100 % of control
T/C [2]: 95 % of control

OCC12CC=CCC1C1CC=CCC1O2 (stereo not given)
T/C (dose: 50.0 mg/kg/injection, schedule: Q01DX005 (ip), vehicle: saline): 101 % of control
T/C (dose: 100.0 mg/kg/injection, schedule: Q01DX005 (ip), vehicle: saline): 99 % of control
T/C (dose: 200.0 mg/kg/injection, schedule: Q01DX005 (ip), vehicle: saline): 103 % of control

Nc1nnc2nc(CC(=O)c3ccccc3[N+](=O)[O-])c(CC(=O)c3ccccc3[N+](=O)[O-])nn12
T/C [4]: 100 % of control
T/C [5]: 101 % of control
T/C [6]: 100 % of control

O=C(O[C@H]1CCN2C[C@H]3C[C@H](CN4C(=O)CCC[C@H]34)[C@@H]2C1)c1ccc(O)cc1
T/C (dose: 6.25 mg/kg/injection, schedule: Q01DX005 (ip), vehicle: Klucel (hydroxypropylcellulose) (HPC)): 103 % of control
T/C [7]: 106 % of control
T/C [8]: 104 % of control

Nc1c(Br)cc(Br)c2[nH]c(=O)c3ccccc3c12
T/C [4]: 116 % of control
T/C [5]: 106 % of control
